Experiment [1] concerns HCT116 cells. Description: DNA microarray analysis of gene expression changes, correlation and cluster analysis (Example 8). Type of experiment: cell-based, human. The conditions noted are these: HCT116, 24 hours, at twice the 50% growth inhibitory concentration; different from profiles of the other six compounds. Here is the method: HCT116 cells were cultured in an RPMI-1640 medium supplemented with 10% fetal bovine serum, 100 units/ml penicillin and 100 μg/ml streptomycin. The following cultivation and compound treatment were carried out in an incubator at 5% CO2 and 37° C. HCT116 cells were seeded in 10 cm-diameter cell culture dishes at 2.0×10^6 cells/dish, cultured for 24 hours and subjected to the following compound treatment.
In this example, changes in the gene expression of HCT116 cells upon treatments with 12 compounds, i.e., E7820 (0.16 μM), E7070 (0.26 μM), LY186641 (59 μM), LY295501 (24 μM), LY-573636 (9.6 μM), CQS (4.0 μM), MST16 (100 μM), etoposide (3.6 μM), ethoxzolamide (410 μM), capsaicin (280 μM), trichostatin A (0.16 μM) and kenpaullone (7.1 μM) were examined.
The concentration of each compound used for the treatment was set to twice the 50% growth inhibitory concentration of each compound to the HCT116 cells (based on three days of antiproliferative activity using MTT). The cells were collected 24 hours after the treatment at the concentration indicated in parentheses following each compound name above. Similarly, cells cultured for 24 hours without the addition of any compound were also collected.
Total RNA extraction from the collected cells was performed using TRIZOL reagent (Invitrogen) according to the attached instruction.
Gene expression analysis using a DNA microarray was carried out in the same manner as “(2) Analysis of gene expression using DNA microarray” in Example 7.
This example was conducted for each sample in duplicate (for the convenience of the experiment, samples were given branch numbers like control-1, control-2, E7070-1, E7070-2 and so on for distinction). Then, GeneChip (Affymetrix) system (Human Focus array) was used for analyzing changes in the gene expression induced by each compound.
Twenty-six “.cel” files obtained in this example (13 samples (a control+12 compounds)×2) were subjected to RMA method (robust multi-array average method (Biostatistics (2003), 4, 249-264)) for normal distribution at probe level, and then the logarithm value of the signal intensity at gene level was calculated. Next, the logarithm value of the signal intensity of the untreated group (control-1) was subtracted from the logarithm value of the signal intensity of the compound-treated group for each gene to obtain the logarithm value of the signal ratio of the compound-treated group to control-1. Then, cosine correlation coefficients were calculated as correlation coefficients between the experiments (FIG. 9). Based on these correlation coefficients, hierarchical cluster analysis was performed according to UPGMA method (Unweighted Pair Group Method with Arithmetic mean method) (FIG. 10). Control-2 was also subjected to similar calculation (FIGS. 11 and 12). The softwares used were R 2.0.1 (http://www.r-project.org/) and affy package 1.5.8 (http://www.bioconductor.org).

For experiment [2], the system named is HCT116-C9. Description: Cross-resistance in E7070-resistant cell line, antiproliferative activity by MTT method. Type of experiment: cell-based, human. The conditions noted are these: Example 11, 72 hours. Here is the method: An E7070-resistant cell line was used to assess the antiproliferative activities of E7820, LY186641, LY295501, LY-ASAP and CQS. HCT116-C9 was a substrain separated from human colon cancer-derived HCT116 (American Type Culture Collection, Manassas, Va., U.S.A.). This HCT116-C9 was cultured in the presence of E7070 while increasing the E7070 concentration by degrees, thereby obtaining E7070-resistant substrains HCT116-C9-C1 and HCT116-C9-C4 (Molecular Cancer Therapeutics, 2002, 1, 275-286).
Three cell lines, i.e., HCT116-C9, HCT116-C9-C1 and HCT116-C9-C4, were each seeded at 3000 cells/well onto a 96-well microplate (flat bottom) (50 μl/well). Twenty-four hours later, they were added with a 3-fold dilution series of each compound (50 μl/well). Seventy-two hours later, the antiproliferative activities were assessed by MTT method (Mossmann T., J. Immunol. Methods, 1983, 65, 55-63). The 50% growth inhibitory concentrations to the cancer cells were obtained by a least square method.
In exactly the same manner as in Example 10, an E7070-resistant cell line was used to assess the antiproliferative activities of LY573636 as well as those of E7070.
Background: Tetrazolium assays rely on reduction of a dye to a coloured formazan, in cell work by metabolically active cells.

Experiment [3] has as its system human non-small-cell lung cancer cell line (A549). Briefly: E7820 and gefitinib in subcutaneous transplant model of A549. The format is in vivo. The conditions noted are these: A549 s.c. in nude mouse; oral; E7820 50 mg/kg twice a day, gefitinib 75 mg/kg once a day, 3 weeks; Day 1 = first administration. The method, then:
(§1) Human non-small-cell lung cancer cell line A549 (purchased from Dainippon Pharmaceutical) was cultured in RPMI1640 (containing 10% FBS) in a 5% carbon dioxide incubator at 37° C. to about 80% confluence, and the cells were collected with trypsin-EDTA. Using a phosphate buffer containing 50% matrigel, 5×10^7 cells/mL suspension was prepared, and 0.1 mL each of the resulting cell suspension was subcutaneously transplanted to a nude mouse at the side of its body. Ten days after the transplantation, E7820 and gefitinib were orally administered alone or in combination for 50 mg/kg twice a day for 3 weeks and for 75 mg/kg once a day for 3 weeks, respectively. The major and minor axes of tumors were measured with Digimatic caliper (Mitsutoyo), and tumor volumes and relative tumor volumes were calculated according to the following formulae.
Tumor Volume TV=Major axis of tumor(mm)×(minor axis of tumor)^2(mm^2)/2
(§2) Relative Tumor Volume RTV=Tumor volume on measurement day/Tumor volume on the first administration day

In experiment [4] the test system is human colon cancer cell line (WiDr). Briefly: E7820 and cetuximab in subcutaneous transplant model of WiDr. The format is in vivo. The conditions noted are these: WiDr s.c. in nude mouse; E7820 oral 50 mg/kg twice a day, cetuximab i.p. 100 mg/kg twice a week, 2 weeks; Day 1 = first administration.
Method: Human colon cancer cell line WiDr (obtained from Dainippon Pharmaceutical) was cultured in RPMI1640 (containing 10% FBS) in a 5% carbon dioxide incubator at 37° C. to about 80% confluence, and the cells were collected with trypsin-EDTA. Using a phosphate buffer, 5×10^7 cells/mL suspension was prepared, and 0.1 mL each of the resulting cell suspension was subcutaneously transplanted to a nude mouse at the side of its body.
Experiment [5] relates to human non-small-cell lung cancer cell line (A549). Description: E7820 and erlotinib in subcutaneous transplant model of A549. Type of experiment: in vivo. The note with it: A549 s.c. in nude mouse; oral; E7820 50 mg/kg twice a day, erlotinib 100 mg/kg once a day, 2 weeks; Day 1 = first administration. Here is the method: as §1, with “body. Seventeen” for “body. Ten”, “and erlotinib” for “and gefitinib”, “for 2” for “for 3”, “for 100” for “for 75”
(§3) Tumor Volume TV=Major axis of tumor(mm)×(Minor axis of tumor)^2(mm^2)/2
as §2

Experiment [6] deals with human non-small-cell lung cancer cell line (PC9). Briefly: E7820 and gefitinib in subcutaneous transplant model of PC9. The format is in vivo. The conditions noted are these: PC9 s.c. in nude mouse; oral; E7820 50 mg/kg twice a day, gefitinib 75 mg/kg once a day, 2 weeks; Day 1 = first administration. Here is the method: Using a phosphate buffer, 5×10^7 cells/mL suspension was prepared, and 0.1 mL each of the resulting cell suspension was subcutaneously transplanted to a nude mouse at the side of its body. Eight days after the transplantation, E7820 and gefitinib were orally administered alone or in combination for 50 mg/kg twice a day for 2 weeks and for 75 mg/kg once a day for 2 weeks, respectively. The major and minor axes of tumors were measured with Digimatic caliper (Mitsutoyo), and tumor volumes and relative tumor volumes were calculated according to the following formulae.
as §3, §2

Experiment [7] deals with human renal cancer cell line (ACHN). Description: E7820 and cetuximab in subcutaneous transplant model of ACHN. The format is in vivo. The note with it: ACHN s.c. in nude mouse; E7820 oral 50 mg/kg twice a day, cetuximab i.p. 100 mg/kg twice a week, 2 weeks; Day 1 = first administration.
Method: Human renal cancer cell line ACHN (obtained from Dainippon Pharmaceutical) was cultured in RPMI1640 (containing 10% FBS) in a 5% carbon dioxide incubator at 37° C. to about 80% confluence, and the cells were collected with trypsin-EDTA. Using a phosphate buffer, 1×10^8 cells/mL suspension was prepared, and 0.1 mL each of the resulting cell suspension was subcutaneously transplanted to a nude mouse at the side of its body.
Tumor Volume TV=Major axis of tumor(mm)×(Minor axis of tumor)^2 (mm^2)/2

The structures appear in SMILES notation.

Turning to `Nc1ccc(S(=O)(=O)Nc2cnc3c(Cl)cccc3n2)cc1` [CQS, 2-sulfanylamide-5-chloroquinoxaline], in experiment [1], the “similarity of changes in gene expression (cosine correlation, cluster analysis) among E7070, E7820, LY186641, LY295501, LY573636 and CQS” value (“similarity of changes in gene expression” for short) is listed as “very similar genetic alterations”. For the compound `NS(=O)(=O)c1ccc(S(=O)(=O)Nc2cccc3c(Cl)c[nH]c23)cc1` [E7070, N-(3-chloro-1H-indole-7-yl)-4-sulfamoylbenzenesulfonamide], the “similarity of changes in gene expression” value in experiment [1] is “very similar genetic alterations”. In experiment [2], the IC50 – broadly, the concentration needed to halve the response being measured – came out at 127 nM. Turning to `Cc1ccc(NS(=O)(=O)c2cccc(C#N)c2)c2[nH]cc(C#N)c12` [E7820, N-(3-cyano-4-methyl-1H-indole-7-yl)-3-cyanobenzenesulfonamide], in experiment [3], the “Relative tumor volume on Day 22 Average ± standard deviation” value is reported as 3.69 ± 0.68. Further, the “Relative tumor volume on Day 15 Average ± standard deviation” value in experiment [4] amounted to 3.3 ± 0.6; in experiment [5], 2.62 ± 0.07; in experiment [6] it was 2.57 ± 0.41; in experiment [7], 1.3 ± 0.2. In addition, the “similarity of changes in gene expression” value in experiment [1] is “very similar genetic alterations”. With `C#Cc1cccc(Nc2ncnc3cc(OCCOC)c(OCCOC)cc23)c1` [Erlotinib, 4-(3-ethynylphenylamino)-6,7-bis(2-methoxyethoxy)-quinazoline, reference compound], the “Relative tumor volume on Day 15 Average ± standard deviation” value in experiment [5] was found to be 1.94 ± 0.19. Turning to `COc1cc2ncnc(Nc3ccc(F)c(Cl)c3)c2cc1OCCCN1CCOCC1` [Gefitinib, 4-(3-chloro-4-fluorophenylamino)-7-methoxy-6-(3-(4-morpholino)propoxy-quinazoline), reference compound], the “Relative tumor volume on Day 22 Average ± standard deviation” value in experiment [3] was determined as 2.26 ± 0.59. The “Relative tumor volume on Day 15 Average ± standard deviation” value in experiment [6] amounted to 0.36 ± 0.12. As to `O=C(Nc1ccc(Cl)cc1)NS(=O)(=O)c1ccc2c(c1)CCC2` [LY186641, N-[[(4-chlorophenyl)amino]carbonyl]-2,3-dihydro-1H-indene-5-sulfonamide], the “similarity of changes in gene expression” value in experiment [1] is “very similar genetic alterations”. On the same count and under the same terms, to `O=C(Nc1ccc(Cl)c(Cl)c1)NS(=O)(=O)c1ccc2c(c1)CCO2` [LY295501, N-[[(3,4-dichlorophenyl)amino]carbonyl]-2,3-dihydrobenzofuran-5-sulfonamide] belongs “very similar genetic alterations”; to `O=C(NS(=O)(=O)c1ccc(Br)s1)c1ccc(Cl)cc1Cl` [LY573636, N-(2,4-dichlorobenzoyl)-5-bromothiophene-2-sulfonamide], “very similar genetic alterations”.

Source of the values: US20090047278A1, “Novel Combinational Use of Sulfonamide Compound” (Eisai R & D Management Co., Ltd., priority 2005, published 2009).
